This is an account of results in patent publication US11382889B2, “NRF2 activators for the prevention and/or treatment of axonal degeneration” (priority 2018, dated 2022).

The subject of assay [1] is Abcd1− mice spinal cord. Nature of the assay: Mitochondrial depletion and bioenergetic failure in Abcd1− mice spinal cord. The assay is classed as in vivo. Particulars: 12 months of age, DMF 100 mg/kg/day in chow for 4 months. Here is the method: b) NRF2-dependent antioxidative genes (Hmox1, Nqo1 and Gst α 3) expression in WT (n=8), Abcd1^− (n=8) and Abcd1^−+DMF (n=8) mice spinal cord at 12 months of age. Gene expression levels were normalized relative to Rplp0. Quantification is represented as fold change to WT mice. c) Mitochondrial DNA (mtDNA) levels in WT (n=8), Abcd1^− (n=8) and Abcd1^−+DMF (n=8) mice spinal cord at 12 months of age. mtDNA content was measured by quantitative RT-PCR and expressed as the ratio of mtDNA (CytB levels) to nuclear DNA (nDNA, Cebpa levels). Quantification is depicted as fold change to WT mice. d) Sirt1, Pgc-1α, Nrf1 and Tfam expression was measured by quantitative RT-PCR in WT (n=8), Abcd1^− (n=8) and Abcd1^−+DMF (n=8) mice spinal cord at 12 months of age. Gene expression levels were normalized relative to Rplp0. Quantification is depicted as fold change to WT mice. e) ATP levels in WT (n=8), Abcd1^− (n=8) and Abcd1^−+DMF (n=8) mice spinal cord at 12 months of age. Quantification is represented as fold change to WT mice. Data are shown as mean±SD (*p<0.05, **p<0.01, ***p<0.001 after one-way ANOVA test followed by Tukey's post-hoc test; #p<0.05 after one-way ANOVA test followed by Dunnett's post-hoc test; p<0.05, p<0.01 after non-parametric Kruskal-Wallis' test).
Cages contained 3 to 5 animals.
We used two X-ALD mouse models in this study. We characterized the biochemical signs of adult X-ALD in Abcd1^− mice at 12 months of age. These mice show biochemical signs of pathology, including oxidative stress and energetic homeostasis impairment, before the first clinical signs of AMN-like pathology (axonopathy and locomotor impairment) appear at 20 months.
For biochemical analysis, we killed the mice and stored the tissues at −80° C. after snap-freezing them in liquid nitrogen. For histological analysis, spinal cord was harvested from 18-month-old mice after perfusing them with 4% paraformaldehyde (PFA; Sigma-Aldrich, Ref. 441244) in 0.1 M phosphate buffer pH 7.4. […]

In assay [2] the test system is Abcd1−/Abcd2−/− (DKO) mice. Nature of the assay: Bar cross and treadmill tests in Abcd1−/Abcd2−/− (DKO) mice. The assay is classed as in vivo. Particulars: 18 months of age, end of treatment, DMF 100 mg/kg in chow for 6 months. From the text: a-x) Immunohistological analysis of axonal pathologies performed in 18-month-old WT, Abcd1^−/Abcd2^−/− (DKO) and Abcd1^−/Abcd2^−/− mice treated with DMF (DKO+DMF) (n=5 per genotype and condition). Spinal cord immunohistological sections were processed for (a-c) Iba1, (d-f) GFAP, (g-i) Synaptophysin, (j-l) APP, (m-o) Sudan black, (p-r) 8-oxo-dG, (s-u) CYT C and (v-x) SMI-32 immunostaining. Representative images for (a, d, g, j, m, p, s, v) WT, (b, e, h, k, n, q, t, w) DKO, and (c, f, i, l, o, r, u, x) DKO+DMF are shown. Scale bars=25 μm (a-r) and […] (s-x). y) Quantification of synaptophysin and APP accumulations in spinal cord immunohistological sections of WT (n=5), DKO (n=5) and DKO+DMF (n=5) mice. z) Bar-cross and treadmill tests performed on 18-month-old WT (n=14), Abcd1^−//Abcd2^−/− (DKO) (n=16) and Abcd1^−//Abcd2^−/− mice treated with DMF (DKO+DMF) (n=14). […] Values are expressed as mean±SD (*p<0.05, **p<0.01, ***p<0.001 after one-way ANOVA test followed by Tukey's post hoc test; p<0.05, p<0.001 after non-parametric Kruskal-Wallis' test).
To address the therapeutic effect of DMF, we assessed the clinical signs of AMN in Abcd1^−/Abcd2^−/− (DKO) mice, which display increased VLCFA accumulation in the spinal cord, higher levels of oxidative damage to proteins, and a more severe AMN-like pathology with an earlier onset at 12 months of age. […]

Counter-ions that a name gives are not always drawn.

Regarding `COC(=O)/C=C/C(=O)OC` [DMF, dimethyl fumarate], in assay [1] (Abcd1− mouse spinal cord), the “mitochondrial DNA (mtDNA) levels” value is “normalized” and the “mitochondrial biogenesis genes mRNA expression (Sirt1, Pgc-1α, Nrf1, Tfam)” value is reported as “normalized”. Moreover, the ATP levels entry in assay [1] (X-ALD (Abcd1−) mouse spinal cord) is “normalized”. Moreover, in assay [2], the “bar cross test (number of slips and time to cross the bar)” value is “behaved similar to WT mice”; the “treadmill test (number and duration of shocks)” value is “improved the performance of DKO mice in this test, up to the level of WT mice”.
